ChEMBL document CHEMBL2203134, “Discovery of XL888: a novel tropane-derived small molecule inhibitor of HSP90” (Bioorg Med Chem Lett, 2012)
In brackets after ≈: the same amount, converted by molar mass. Blank lines part the entries; values can stand above or below the compound they belong to. Activity calls are given as the source filed them. The rule behind the calls is not given here.

Columns and labels:
Mus musculus [1] = assay: Inhibition of Hsp90 in human NCI-N87 cells xenografted in mouse assessed as Raf1 degradation at 100 mg/kg administered QD for 3 days measured after 8 hrs post-last dose relative to control; assay type: functional, organism-based; design: dose 100 mg/kg
[2] = Plasma concentration in mouse xenografted with human NCI-N87 cells at 100 mg/kg administered QD for 3 days measured 24 hrs post-last dose; assay type: ADME, organism-based; design: dose 100 mg/kg
MCF7 = assay: Antiproliferative activity against human MCF7 cells overexpressing PI3K after 48 hrs by BrdU labeling assay; assay type: functional, cell-based; conditions: MCF7, 48 h
Mus musculus [3] = assay: Inhibition of Hsp90 in human NCI-N87 cells xenografted in mouse assessed as Raf1 degradation at 100 mg/kg administered QD for 3 days measured at 8 hrs post-last dose relative to control; assay type: functional
BT-474 = assay: Antiproliferative activity against human BT474 cells overexpressing Her2 after 48 hrs by BrdU labeling assay; assay type: functional, cell-based; conditions: BT-474, 48 h
[4] = Drug uptake in human NCI-N87 tumor xenografted in mouse at 100 mg/kg administered QD for 3 days measured at 8 hrs post-last dose; assay type: ADME, organism-based, Neoplasm; design: dose 100 mg/kg; conditions: human NCI-N87 tumor xenograft, read-out: Drug uptake
A549 = assay: Antiproliferative activity against human A549 cells overexpressing Kras after 48 hrs by BrdU labeling assay; assay type: functional, cell-based; conditions: A549, 48 h
[5] = Drug uptake in human NCI-N87 tumor xenografted in mouse at 100 mg/kg administered QD for 3 days measured at 96 hrs post-last dose; assay type: ADME, organism-based, Neoplasm; design: dose 100 mg/kg; conditions: human NCI-N87 tumor xenograft, read-out: Drug uptake
NCI-N87 [6] = assay: Antiproliferative activity against human NCI-N87 cells overexpressing Her2 after 48 hrs by BrdU labeling assay; assay type: functional, cell-based; conditions: NCI-N87, 48 h
SK-MEL-28 = assay: Antiproliferative activity against human SK-MEL-28 cells overexpressing Braf after 48 hrs by BrdU labeling assay; assay type: functional, cell-based; conditions: SK-MEL-28, 48 h
MKN-45 = assay: Antiproliferative activity against human MKN45 cells overexpressing MET after 48 hrs by BrdU labeling assay; assay type: functional, cell-based; conditions: MKN-45, 48 h
Mus musculus [7] = assay: Inhibition of Hsp90 in human NCI-N87 cells xenografted in mouse assessed as Her2 degradation at 100 mg/kg administered QD for 3 days measured at 8 hrs post-last dose relative to control; assay type: functional
[8] = Half life in rat at 5 mg/kg, iv; assay type: ADME, organism-based; design: dose 5 mg/kg, route intravenous; conditions: in vivo
Rattus norvegicus = assay: Dose normalized AUC in rat at 5 mg/kg, iv; assay type: ADME, organism-based; design: dose 5 mg/kg, route intravenous; conditions: in vivo
Heat shock protein HSP90 [9] = target: T1, Heat shock protein HSP90 (Homo sapiens, UniProt P07900+P08238); assay: Inhibition of Hsp90 in human NCI-N87 cells assessed as Her2 degradation after 24 hrs by Western blot analysis; assay type: cell-based
HN5 = assay: Antiproliferative activity against human HN5 cells overexpressing EGFR after 48 hrs by BrdU labeling assay; assay type: functional, cell-based; conditions: HN5, 48 h
[10] = Oral bioavailability in rat at 5 mg/kg; assay type: ADME, organism-based; conditions: in vivo
Mus musculus [11] = assay: Inhibition of Hsp90 in human NCI-N87 cells xenografted in mouse assessed as Hsp70 upregulation at 100 mg/kg administered QD for 3 days measured at 8 hrs post-last dose relative to control; assay type: functional
Mus musculus [12] = assay: Inhibition of Hsp90 in human NCI-N87 cells xenografted in mouse assessed as Her2 degradation at 100 mg/kg administered QD for 3 days measured up to 48 hrs post-last dose relative to control; assay type: functional
[13] = Clearance in rat at 5 mg/kg, iv; assay type: ADME, organism-based; design: dose 5 mg/kg, route intravenous; conditions: in vivo
COLO 205 = assay: Antiproliferative activity against human COLO205 cells overexpressing Braf after 48 hrs by BrdU labeling assay; assay type: functional, cell-based; conditions: COLO 205, 48 h
NCI-N87 [14] = assay: Antitumor activity against human NCI-N87 cells xenografted in mouse assessed as tumor growth inhibition at 100 mg/kg administered QD for 3 days in a week relative to control; assay type: functional; conditions: NCI-N87, 72 h, read-out: TGI
[15] = Apparent permeability across MDCK cells; assay type: ADME, cell-based, Canis lupus familiaris; conditions: dog
NCI-H1975 = assay: Antiproliferative activity against human NCI-H1975 cells overexpressing EGFR after 48 hrs by BrdU labeling assay; assay type: functional, cell-based; conditions: NCI-H1975, 48 h
NCI-N87 [16] = assay: Antitumor activity against human NCI-N87 cells xenografted in mouse assessed as tumor regression at 100 mg/kg administered QD for 3 days in a week relative to control; assay type: functional
MDA-MB-453 = assay: Antiproliferative activity against human MDA-MB-453 cells overexpressing Her2 after 48 hrs by BrdU labeling assay; assay type: functional, cell-based; conditions: MDA-MB-453, 48 h
[17] = Drug uptake in human NCI-N87 tumor xenografted in mouse at 100 mg/kg administered QD for 3 days measured at 24 hrs post-last dose; assay type: ADME, organism-based, Neoplasm; design: dose 100 mg/kg; conditions: human NCI-N87 tumor xenograft, read-out: Drug uptake
[18] = Plasma concentration in mouse xenografted with human NCI-N87 cells at 100 mg/kg administered QD for 3 days measured 8 hrs post-last dose; assay type: ADME, organism-based; design: dose 100 mg/kg
Mus musculus [19] = assay: Inhibition of Hsp90 in human NCI-N87 cells xenografted in mouse assessed as Hsp70 upregulation at 100 mg/kg administered QD for 3 days measured at 96 hrs post-last dose relative to control; assay type: functional
NCI-N87 [20] = assay: Antitumor activity against human NCI-N87 cells xenografted in mouse assessed as tumor growth inhibition at 60 mg/kg administered QD relative to control; assay type: functional; conditions: read-out: TGI
Plasma = assay: Plasma concentration in mouse xenografted with human NCI-N87 cells at 100 mg/kg administered QD for 3 days measured 96 hrs post-last dose; assay type: ADME, organism-based; design: dose 100 mg/kg; conditions: in vivo, BLD = below limit of detection
[21] = Drug uptake in human COLO205 tumor xenografted in mouse at 100 mg/kg administered QD for 2 days measured 8 hrs post-last dose; assay type: ADME, organism-based, Neoplasm; design: dose 100 mg/kg; conditions: human COLO205 tumor xenograft, read-out: Drug uptake
Mus musculus [22] = assay: Inhibition of Hsp90 in human COLO205 cells xenografted in mouse assessed as Raf1 degradation at 100 mg/kg administered QD for 2 days measured 8 hrs post-last dose; assay type: functional; conditions: COLO 205
[23] = Drug metabolism in mouse liver microsomes at 15 uM after 30 mins; assay type: ADME, Microsome; conditions: read-out: Drug metabolism
[24] = Kinetic solubility of the compound; assay type: physicochemical; conditions: read-out: Kinetic_solubility
Heat shock protein HSP90 [25] = target: T1, Heat shock protein HSP90; assay: Displacement of biotinylated geldanamycin from human His-tagged Hsp90 by TR-FRET assay; assay type: protein assay
Heat shock protein HSP90 [26] = target: T1, Heat shock protein HSP90; assay: Inhibition of Hsp90 in human A549 cells assessed as Raf1 degradation after 24 hrs by Western blot analysis; assay type: cell-based
[27] = Drug metabolism in human liver microsomes at 15 uM after 30 mins; assay type: ADME, Microsome; conditions: read-out: Drug metabolism
Mus musculus [28] = assay: Inhibition of Hsp90 in human COLO205 cells xenografted in mouse assessed as Her2 degradation at 100 mg/kg administered QD for 2 days measured 8 hrs post-last dose; assay type: functional; conditions: COLO 205

concentration at 24 h [2]: 70 nM
IC50 (MCF7): 4.1 nM
IC50 (BT-474): 0.1 nM
concentration at 8 h [4]: 5390 nM
IC50 (A549): 4.3 nM
concentration at 96 h [5]: 1820 nM
IC50 (SK-MEL-28): 0.3 nM
IC50 (MKN-45): 45.5 nM
half-life [8]: 1.4 h
AUC/dose (Rattus norvegicus): 2.23 µM·kg·h/mg
IC50 (Heat shock protein HSP90 [9]): 56 nM
bioavailability [10]: 30%
clearance [13]: 15.3 mL/min/kg
IC50 (COLO 205): 11.6 nM
Papp [15]: 32 ×10⁻⁶ cm/s
IC50 (NCI-H1975): 0.7 nM
IC50 (MDA-MB-453): 16 nM
concentration at 24 h [17]: 2860 nM
concentration at 8 h [18]: 2260 nM
Cp (Plasma): BLD
Compound: CC[C@@H](C)Nc1cc(C(=O)NC2CC3CCC(C2)N3c2ccc(C(=O)C3CC3)cn2)c(C)cc1C(N)=O (some centres undefined)
inhibition (Mus musculus [1]): inactive
inhibition in vivo at 100 mg/kg (Mus musculus [3]): 56%
IC50 (NCI-N87 [6]): 21.8 nM
inhibition in vivo at 100 mg/kg (Mus musculus [7]): 92%
IC50 (HN5): 5.5 nM
inhibition in vivo at 100 mg/kg (Mus musculus [11]): 234%
inhibition in vivo at 100 mg/kg (Mus musculus [12]): 75%
inhibition in vivo at 100 mg/kg (NCI-N87 [14]): > 100%
Activity (NCI-N87 [16]): 21%
inhibition in vivo at 100 mg/kg (Mus musculus [19]): 343%
inhibition in vivo at 60 mg/kg (NCI-N87 [20]): 100%

Compound: COc1cccc(C(=O)NC2CC3CCC(C2)N3c2ccc(C(N)=O)cn2)c1C (centres undefined)
concentration at 8 h [21]: 6700 nM
inhibition (Mus musculus [22]): inactive
half-life [8]: 2.1 h
AUC/dose (Rattus norvegicus): 6.3 µM·kg·h/mg
metabolised at 0.5 h, 15 µM [23]: 29%
bioavailability [10]: 81%
solubility kinetic [24]: 470 µM (≈ 185 µg/mL)
clearance [13]: 6.15 mL/min/kg
IC50 (Heat shock protein HSP90 [25]): 641 nM
IC50 (Heat shock protein HSP90 [26]): 3800 nM
Papp [15]: 13.3 ×10⁻⁶ cm/s
metabolised at 0.5 h, 15 µM [27]: 21%
inhibition in vivo at 100 mg/kg (Mus musculus [28]): 63%
